What all share (experiment): In vitro cell growth inhibition assay (MTT)
Type in all cases: cell-based, human

One experiment deals with A2780. Particulars: read-out: IC50 A2780. As to the method: (§1) 5000 tumor cells per well were seeded into 96-well plate and allowed to adhere overnight. Cells were treated with various concentrations of tested compounds or DMSO (0.2%, as negative control) for 48 h. Then, the medium along with tested compounds or DMSO was discarded and […] per well MTT containing medium (0.5 mg/mL) was added. After incubation at 37° C. for 4 h, the MTT-containing medium was replaced by DMSO (150 μL per well) to dissolve the formazan crystals. Absorbance of the resulting solution was measured by microplate reader (Biotech ELx800) at 540 nm wavelength. Growth inhibition rates were calculated with the absorbance. Half maximal inhibitory concentration (IC50) of each compound was calculated using GraphPad Prism, version 6.0.

Another experiment relates to Hela. Particulars: 48 h, read-out: IC50 Hela. As to the method: as §1
A further experiment has as its system MDA-MB-231. The conditions noted are these: read-out: IC50 MDA-MB-231. The protocol:
as §1

The next experiment deals with SKOV3. Particulars: read-out: IC50 SKOV3. The protocol: as §1
The mark [1] stands for this setting: A2780 human ovarian cancer cell line, 48 h, MTT.
[2] abbreviates: Hela human cervical cancer cell line, MTT.
Where [3] appears, read: MDA-MB-231 human breast cancer cell line, 48 h, MTT.
Where [4] appears, read: SK-OV-3, SKOV-3 human ovarian cancer cell line, 48 h, MTT.

The structures appear in SMILES notation. Where two headings read alike, the source gives them in different places. A value given as a limit tells only on which side of the number the result lay.

Broadly, the IC50 is the concentration that gives 50% inhibition. Regarding `C=C1C(=O)N(c2cc(OC)c(OC)c(OC)c2)[C@H]1c1ccc(OC)c(OCCN(C)C)c1` [Compound 14, (S)-4-(3-(2-(dimethylamino)ethoxy)-4-methoxyphenyl)-3-methylene-1-(3,4,5-trimethoxyphenyl)azetidin-2-one], the IC50 in the experiment with A2780 (Homo sapiens, A2780, 48 h) was greater than 10 µM; in the experiment on Hela (Homo sapiens, HeLa), greater than 10 µM; in the experiment on MDA-MB-231 (Homo sapiens, MDA-MB-231, 48 h) it was greater than 10 µM; with SKOV3 (Homo sapiens, SK-OV-3, 48 h), greater than 10 µM.

`C=C1C(=O)N(c2cc(OC)c(OC)c(OC)c2)[C@H]1c1ccc(OC)c(OCC(N)=O)c1` [Compound 16, (S)-2-(2-methoxy-5-(3-methylene-4-oxo-1-(3,4,5-trimethoxyphenyl)azetidin-2-yl)phenoxy)acetamide]: the IC50 in the experiment with A2780 (setting [1]) was 0.316 µM; in the experiment with Hela (setting [2]), 0.818 µM; in the experiment on MDA-MB-231 (setting [3]), 0.503 µM; in the experiment with SKOV3 (setting [4]), 0.698 µM.

As to `C=C1C(=O)N(c2cc(OC)c(OC)c(OC)c2)[C@H]1c1ccc(OC)c(OCCCNC(=O)OCc2ccccc2)c1` [Compound 17, (S)-benzyl (3-(2-methoxy-5-(3-methylene-4-oxo-1-(3,4,5-trimethoxyphenyl)azetidin-2-yl)phenoxy)propyl)carbamate], the concentration for half-maximal inhibition (IC50) in the experiment with A2780 (setting [1]), in the experiment on Hela (setting [2]), in the experiment on MDA-MB-231 (setting [3]) and in the experiment with SKOV3 (setting [4]) was greater than 10 µM throughout.

Consider `C=C1C(=O)N(c2cc(OC)c(OC)c(OC)c2)[C@H]1c1ccc(OC)c(OC(=O)c2ccccc2OC)c1` [Compound 21, (S)-2-methoxy-5-(3-methylene-4-oxo-1-(3,4,5-trimethoxyphenyl)azetidin-2-yl)phenyl 2-methoxybenzoate], for which the half-inhibitory concentration (IC50) in the experiment with A2780 (setting [1]) was found to be 0.201 µM; in the experiment with Hela (setting [2]), 0.106 µM; with MDA-MB-231 (setting [3]), 0.218 µM; in the experiment with SKOV3 (setting [4]), 0.155 µM.

As for `C=C1C(=O)N(c2cc(OC)c(OC)c(OC)c2)[C@H]1c1ccc(OC)c(OS(=O)(=O)c2ccc(C)cc2)c1` [Compound 27, (S)-2-methoxy-5-(3-methylene-4-oxo-1-(3,4,5-trimethoxyphenyl)azetidin-2-yl)phenyl 4-methylbenzenesulfonate], the IC50 in the experiment on A2780 (setting [1]) is 6.67 µM; in the experiment with Hela (setting [2]), 17.8 µM; with MDA-MB-231 (setting [3]) it was 12.8 µM; in the experiment with SKOV3 (setting [4]), 12.1 µM.

Regarding `C=C1C(=O)N(c2cc(OC)c(OC)c(OC)c2)[C@H]1c1ccc(OC)c(OS(=O)(=O)c2ccc(NC(C)=O)cc2)c1` [Compound 30, (S)-2-methoxy-5-(3-methylene-4-oxo-1-(3,4,5-trimethoxyphenyl)azetidin-2-yl)phenyl 4-acetamidobenzenesulfonate], the IC50 came to 12.2 µM in the experiment on A2780 (setting [1]), 15.9 µM with Hela (setting [2]), 15.8 µM with MDA-MB-231 (setting [3]) and 12 µM in the experiment with SKOV3 (setting [4]).

For `C=C1C(=O)N(c2cc(OC)c(OC)c(OC)c2)[C@H]1c1ccc(OC)c(OS(=O)(=O)Cc2ccccc2)c1` [Compound 32, (S)-2-methoxy-5-(3-methylene-4-oxo-1-(3,4,5-trimethoxyphenyl)azetidin-2-yl)phenyl phenylmethanesulfonate], the IC50 in the experiment with A2780 (setting [1]) was 7.34 µM; in the experiment on Hela (setting [2]) it was greater than 20 µM; with MDA-MB-231 (setting [3]) it was greater than 20 µM; with SKOV3 (setting [4]), 8.66 µM.

As to `C=C1C(=O)N(c2cc(OC)c(OC)c(OC)c2)[C@H]1c1ccc(OC)c(OS(=O)(=O)c2ccc(OC)c(OC)c2)c1` [Compound 33, (S)-2-methoxy-5-(3-methylene-4-oxo-1-(3,4,5-trimethoxyphenyl)azetidin-2-yl)phenyl 3,4-dimethoxybenzenesulfonate], the IC50 in the experiment with A2780 (setting [1]) stood at 12.3 µM; with Hela (setting [2]), 12.3 µM; with MDA-MB-231 (setting [3]) it was 13.4 µM; with SKOV3 (setting [4]), 15.2 µM.

As to `C=C1C(=O)N(c2cc(OC)c(OC)c(OC)c2)[C@H]1c1ccc(OC)c(OC(=O)[C@H](C)NC(=O)OC(C)(C)C)c1` [Compound 35, (S)-2-methoxy-5-((S)-3-methylene-4-oxo-1-(3,4,5-trimethoxyphenyl)azetidin-2-yl)phenyl 2-((tert-butoxycarbonyl)amino)propanoate], the IC50 in the experiment with A2780 (setting [1]) amounted to 0.496 µM; in the experiment on Hela (setting [2]), 0.106 µM; in the experiment on MDA-MB-231 (setting [3]) it was 0.496 µM; in the experiment with SKOV3 (setting [4]), 0.252 µM.

On to `C=C1C(=O)N(c2cc(OC)c(OC)c(OC)c2)[C@H]1c1ccc(OC)c(OC(=O)[C@@H](NC(=O)OC(C)(C)C)C(C)C)c1` [Compound 36, (S)-2-methoxy-5-((S)-3-methylene-4-oxo-1-(3,4,5-trimethoxyphenyl)azetidin-2-yl)phenyl 2-((tert-butoxycarbonyl)amino)-3-methylbutanoate], for which the IC50 in the experiment with A2780 (setting [1]) is 0.505 µM; in the experiment on Hela (setting [2]), 0.501 µM; in the experiment with MDA-MB-231 (setting [3]) it was 0.506 µM; with SKOV3 (setting [4]), 0.496 µM.

As to `C=C1C(=O)N(c2cc(OC)c(OC)c(OC)c2)[C@H]1c1ccc(OC)c(OP(=O)(OCc2ccccc2)OCc2ccccc2)c1` [Compound 37, (S)-dibenzyl (2-methoxy-5-(3-methylene-4-oxo-1-(3,4,5-trimethoxyphenyl)azetidin-2-yl)phenyl) phosphate], the IC50 with A2780 (setting [1]), in the experiment with Hela (setting [2]), in the experiment on MDA-MB-231 (setting [3]) and in the experiment on SKOV3 (setting [4]) was greater than 20 µM each time.

With `C=C1C(=O)N(c2cc(OC)c(OC)c(OC)c2)[C@H]1c1ccc(OC)c(F)c1` [Compound 38, (S)-4-(3-fluoro-4-methoxyphenyl)-3-methylene-1-(3,4,5-trimethoxyphenyl)azetidin-2-one], the IC50 with A2780 (setting [1]) is 0.121 µM; with Hela (setting [2]), 0.131 µM; in the experiment on MDA-MB-231 (setting [3]), 0.111 µM; in the experiment with SKOV3 (setting [4]), 0.134 µM.

Take `C=C1C(=O)N(c2cc(OC)c(OC)c(OC)c2)[C@H]1c1ccc(OC)c(N)c1` [Compound 41, (S)-4-(3-amino-4-methoxyphenyl)-3-methylene-1-(3,4,5-trimethoxyphenyl)azetidin-2-one]: the IC50 was determined as 0.031 µM in the experiment on A2780 (setting [1]), 0.032 µM in the experiment with Hela (setting [2]), 0.04 µM with MDA-MB-231 (setting [3]) and 0.036 µM in the experiment with SKOV3 (setting [4]).

`C=C1C(=O)N(c2cc(OC)cc(OC)c2)[C@H]1c1ccc(OC)c(O)c1` [Compound 49, (S)-1-(3,5-dimethoxyphenyl)-4-(3-hydroxy-4-methoxyphenyl)-3-methyleneazetidin-2-one]: the IC50 with A2780 (setting [1]) was found to be 0.112 µM; in the experiment with Hela (setting [2]) it was 0.295 µM; with MDA-MB-231 (setting [3]), 0.125 µM; with SKOV3 (setting [4]), 0.175 µM.

For the compound `C=C1C(=O)N(c2ccc(OC)cc2OC)[C@H]1c1ccc(OC)c(O)c1` [Compound 50, (S)-1-(2,4-dimethoxyphenyl)-4-(3-hydroxy-4-methoxyphenyl)-3-methyleneazetidin-2-one], the IC50 with A2780 (setting [1]) was 0.234 µM; in the experiment with Hela (setting [2]) it was 0.894 µM; in the experiment with MDA-MB-231 (setting [3]), 0.291 µM; with SKOV3 (setting [4]), 0.513 µM.

With `COc1ccc([C@H]2/C(=C\C[Si](C)(C)C)C(=O)N2c2cc(OC)c(OC)c(OC)c2)cc1O` [Compound 54, (S,E)-4-(3-hydroxy-4-methoxyphenyl)-1-(3,4,5-trimethoxyphenyl)-3-(2-(trimethylsilyl)ethylidene)azetidin-2-one], the IC50 in the experiment on A2780 (setting [1]), in the experiment with Hela (setting [2]), with MDA-MB-231 (setting [3]) and with SKOV3 (setting [4]) was greater than 10 µM each time.

With `COc1ccc([C@H]2/C(=C/c3ccccc3)C(=O)N2c2cc(OC)c(OC)c(OC)c2)cc1O` [Compound 57, (S,Z)-3-benzylidene-4-(3-hydroxy-4-methoxyphenyl)-1-(3,4,5-trimethoxyphenyl)azetidin-2-one], the IC50 is 2.54 µM in the experiment on A2780 (setting [1]), 4.73 µM in the experiment with Hela (setting [2]), 3.17 µM with MDA-MB-231 (setting [3]) and 2.99 µM in the experiment with SKOV3 (setting [4]).

(Values after patent US20200392150A1, “Diaryl-B-Lactam Compound and Preparation Method and Pharmaceutical Use Thereof” (Fudan University, priority 2016, published 2020).)
